Laboratory results reported in PubChem BioAssay AID248 (DTP/NCI, 2004).
Where “and” joins values, the source holds several entries; their conditions need not be identical. Identical values can stand only once. Toxic doses and inconclusive results are not listed. No stated cut-off is given here; in the data, active means T/C of 150% or more; inactive means T/C below 125%.

System: L1210 leukemia ip in BDF1 mice, survival T/C
Experiment: NCI In Vivo Anticancer Drug Screen. Data for tumor model L1210 Leukemia (intraperitoneal) in B6D2F1 (BDF1) mice
Settings: endpoint: mean survival time, higher = longer survival
In short: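 Ratio derived from survival: compound-dosed mice over vehicle-dosed mice, all bearing a transplantable tumor.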

[1] = dose: 100.0 mg/kg/injection, schedule: Q01DX009 (ip), vehicle: saline with Tween-80
[2] = dose: 100.0 mg/kg/injection, schedule: Q04DX003 (ip), vehicle: saline with Tween-80
[3] = dose: 200.0 mg/kg/injection, schedule: Q01DX009 (ip), vehicle: saline with Tween-80
[4] = dose: 200.0 mg/kg/injection, schedule: Q04DX003 (ip), vehicle: saline with Tween-80
[5] = dose: 400.0 mg/kg/injection, schedule: Q01DX009 (ip), vehicle: saline with Tween-80
[6] = dose: 400.0 mg/kg/injection, schedule: Q04DX003 (ip), vehicle: saline with Tween-80
[7] = dose: 100.0 mg/kg/injection, schedule: Q01DX001 (ip), vehicle: saline
[8] = dose: 100.0 mg/kg/injection, schedule: Q04DX003 (ip), vehicle: Klucel (hydroxypropylcellulose) (HPC)
[9] = dose: 200.0 mg/kg/injection, schedule: Q04DX003 (ip), vehicle: Klucel (hydroxypropylcellulose) (HPC)
[10] = dose: 400.0 mg/kg/injection, schedule: Q04DX003 (ip), vehicle: Klucel (hydroxypropylcellulose) (HPC)
[11] = dose: 100.0 mg/kg/injection, schedule: Q01DX001 (ip), vehicle: carboxymethylcellulose (CMC)
[12] = dose: 200.0 mg/kg/injection, schedule: Q01DX001 (ip), vehicle: carboxymethylcellulose (CMC)
[13] = dose: 400.0 mg/kg/injection, schedule: Q01DX001 (ip), vehicle: carboxymethylcellulose (CMC)
[14] = dose: 200.0 mg/kg/injection, schedule: Q01DX001 (ip), vehicle: saline

Measured: T/C

Clc1ccc(C(=Cc2ccccc2Br)c2ccc(Cl)cc2)cc1
inactive: [1] 100 % of control | [2] 98 % of control | [3] 100 % of control | [4] 98 % of control | [5] 96 % of control | [6] 101 % of control

Cc1cccc2c1ccc1cc(C(C)C)ccc12
inactive: dose: 75.0 mg/kg/injection, schedule: Q01DX009 (ip), vehicle: Klucel (hydroxypropylcellulose) (HPC) 106 % of control | dose: 150.0 mg/kg/injection, schedule: Q01DX009 (ip), vehicle: Klucel (hydroxypropylcellulose) (HPC) 105 % of control | dose: 300.0 mg/kg/injection, schedule: Q01DX009 (ip), vehicle: Klucel (hydroxypropylcellulose) (HPC) 98 % of control

CC(C)C(C)/C=C\C(C)C1CCC2=C3CCC4CC(O)CCC4(C)C3CCC21C (configuration not stated)
inactive: dose: 100.0 mg/kg/injection, schedule: Q01DX001 (ip), vehicle: Klucel (hydroxypropylcellulose) (HPC) 97 % of control | dose: 200.0 mg/kg/injection, schedule: Q01DX001 (ip), vehicle: Klucel (hydroxypropylcellulose) (HPC) 97 % of control | dose: 400.0 mg/kg/injection, schedule: Q01DX001 (ip), vehicle: Klucel (hydroxypropylcellulose) (HPC) 93 % of control

O=C1OCCO1
inactive: dose: 100.0 mg/kg/injection, schedule: Q04DX003 (ip), vehicle: saline sonified 95 % of control | dose: 200.0 mg/kg/injection, schedule: Q04DX003 (ip), vehicle: saline sonified 101 % of control | dose: 400.0 mg/kg/injection, schedule: Q04DX003 (ip), vehicle: saline sonified 101 % of control

O=C(COc1ccc(Cl)cc1Cl)Nc1ccc(Br)cc1
inactive: dose: 100.0 mg/kg/injection, schedule: Q04DX002 (ip), vehicle: gum acacia 103 % of control | dose: 200.0 mg/kg/injection, schedule: Q04DX002 (ip), vehicle: gum acacia 92 % of control | dose: 400.0 mg/kg/injection, schedule: Q04DX002 (ip), vehicle: gum acacia 89 % of control

COc1ccc(N=CN(C)C)cc1
inactive: dose: 50.0 mg/kg/injection, schedule: Q01DX001 (ip), vehicle: saline 100 % of control | [7] 96 % of control

O=C(Nc1cc([N+](=O)[O-])ccc1F)N(C1CCCCC1)C1CCCCC1
inactive: [8] 87 % of control | [9] 96 % of control | [10] 104 % of control

COCN1CCN(COC)C1=O
inactive: dose: 100.0 mg/kg/injection, schedule: Q04DX002 (ip), vehicle: saline 105 % of control | dose: 200.0 mg/kg/injection, schedule: Q04DX002 (ip), vehicle: saline 108 % of control | dose: 400.0 mg/kg/injection, schedule: Q04DX002 (ip), vehicle: saline 122 % of control

O=C(O)CCC(=O)Nc1cccc(Oc2ccc([N+](=O)[O-])cc2[N+](=O)[O-])c1
inactive: dose: 100.0 mg/kg/injection, schedule: Q04DX003 (ip), vehicle: saline 106 % of control | dose: 200.0 mg/kg/injection, schedule: Q04DX003 (ip), vehicle: saline 98 % of control | dose: 400.0 mg/kg/injection, schedule: Q04DX003 (ip), vehicle: saline 97 % of control

CC/C(=N\NC(N)=O)C(OC)OC
inactive: [11] 108 % of control | [12] 86 % of control | [13] 92 % of control

COc1cc(C(=O)COC(C)=O)cc(OC)c1OC(C)=O
inactive: [7] 88 % of control | [14] 89 % of control | dose: 400.0 mg/kg/injection, schedule: Q01DX001 (ip), vehicle: saline 89 % of control

S=c1cc(-c2ccccc2)ss1
inactive: [1] 98 % of control | [2] 93 % of control and 102 % of control | [3] 89 % of control | [4] 91 % of control and 100 % of control | [5] 96 % of control | [6] 96 % of control and 91 % of control

O=S(=O)(OCC1CO1)c1ccc(Cl)cc1 (configuration not stated)
inactive: dose: 100.0 mg/kg/injection, schedule: Q01DX008 (ip), vehicle: Klucel (hydroxypropylcellulose) (HPC) 101 % of control | dose: 200.0 mg/kg/injection, schedule: Q01DX008 (ip), vehicle: Klucel (hydroxypropylcellulose) (HPC) 108 % of control | dose: 400.0 mg/kg/injection, schedule: Q01DX008 (ip), vehicle: Klucel (hydroxypropylcellulose) (HPC) 108 % of control

O=C(CCl)NC(=O)CCl
inactive: dose: 15.6 mg/kg/injection, schedule: Q01DX010 (ip), vehicle: other 97 % of control | dose: 31.3 mg/kg/injection, schedule: Q01DX009 (ip), vehicle: other 90 % of control | dose: 62.5 mg/kg/injection, schedule: Q01DX009 (ip), vehicle: other 92 % of control | [7] 103 % of control | [2] 103 % of control | dose: 125.0 mg/kg/injection, schedule: Q01DX010 (ip), vehicle: other 95 % of control | [14] 100 % of control | [4] 93 % of control

CCCC(=O)OCC1OC(n2cc(C)c(=O)[nH]c2=O)CC1OC(=O)CCC (configuration not stated)
inactive: [11] 104 % of control | [12] 93 % of control

CCOC(=O)c1c(O)c(C(=O)O)cc2ccccc12
inactive: dose: 50.0 mg/kg/injection, schedule: Q01DX001 (ip), vehicle: carboxymethylcellulose (CMC) 106 % of control | [11] 108 % of control | [12] 106 % of control | [13] 106 % of control

CCCCCCCNc1ccc(C(=O)O)cc1
inactive: dose: 37.5 mg/kg/injection, schedule: Q01DX009 (ip), vehicle: saline 105 % of control | dose: 75.0 mg/kg/injection, schedule: Q01DX001 (ip), vehicle: saline 93 % of control | dose: 75.0 mg/kg/injection, schedule: Q01DX009 (ip), vehicle: saline 94 % of control | dose: 75.0 mg/kg/injection, schedule: Q04DX003 (ip), vehicle: saline 105 % of control | dose: 150.0 mg/kg/injection, schedule: Q01DX001 (ip), vehicle: saline 104 % of control | dose: 150.0 mg/kg/injection, schedule: Q01DX009 (ip), vehicle: saline 98 % of control | dose: 150.0 mg/kg/injection, schedule: Q04DX003 (ip), vehicle: saline 109 % of control | dose: 300.0 mg/kg/injection, schedule: Q01DX001 (ip), vehicle: saline 102 % of control | dose: 300.0 mg/kg/injection, schedule: Q04DX003 (ip), vehicle: saline 102 % of control

[CH3][Pb]([CH3])([CH3])[I]
inactive: [8] 103 % of control | [9] 98 % of control | [10] 94 % of control

O=C(O)Cn1c(C(F)(F)F)nc2nc(Cl)c(Cl)nc21
inactive: [1] 89 % of control | [2] 94 % of control | [3] 100 % of control | [4] 94 % of control | [5] 92 % of control | [6] 97 % of control

O=CN/N=C/c1ccc(Cl)c([N+](=O)[O-])c1
inactive: dose: 75.0 mg/kg/injection, schedule: Q01DX001 (ip), vehicle: acetone 93 % of control | dose: 150.0 mg/kg/injection, schedule: Q01DX001 (ip), vehicle: acetone 92 % of control | dose: 300.0 mg/kg/injection, schedule: Q01DX001 (ip), vehicle: acetone 92 % of control

CCCCCCCCCC(=O)Nc1ccc(C)cc1C
inactive: dose: 100.0 mg/kg/injection, schedule: Q04DX002 (ip), vehicle: Klucel (hydroxypropylcellulose) (HPC) 97 % of control | dose: 200.0 mg/kg/injection, schedule: Q04DX002 (ip), vehicle: Klucel (hydroxypropylcellulose) (HPC) 101 % of control | dose: 400.0 mg/kg/injection, schedule: Q04DX002 (ip), vehicle: Klucel (hydroxypropylcellulose) (HPC) 90 % of control
